The values that follow come from patent publication US6627732B1, “Glutathione derivatives and their dosage forms” (Teijin Limited, priority 1998, dated 2003).

Data set [1] is described as follows: Intravenous administration of high dosages, local reaction. Type of data set: in vivo. The following applies: high dosages administered intravenously.
A short description of data set [2]: Plasma concentration after intravenous administration to mice (Example 24). The settings on record: iv tail vein 50 mg/kg, HPCD solution, 5 min, individual mice, quantitation limit about 1 μg/ml. The data set is classed as in vivo, mouse. The method, then:
The blood levels of the glutathione derivatives of Example 4 and Comparative Example 1 were compared in mice that are a species having a high esterase activity in the blood.
(1) Male 8-week old BDF1 mice were purchased from Nippon SLC and used for the experiment. Until 9-week old when they were subjected to the experiment, the animals were kept at a temperature of 24±2° C. and a humidity of 55±5% under the condition under which the animals had free access to the animal feed (MF, Oriental Yeast Co., Ltd.) and drinking water (well water treated with 0.4±0.2 ppm hypochlorous acid).
After a fixed time, about 1 ml of blood was drawn from the heart of the animal under ethereal anesthesia (after drawing blood once, each mouse is sacrificed). The N number for each sample group at each time point was 2. After drawing, the blood was immediately cooled on ice and was centrifuged in the presence of sodium citrate to collect plasma. The plasma thus obtained was deproteinized with acetonitrile and then was analyzed by a C18 reverse phase high performance liquid chromatography using an aqueous solution of trifluoroacetic acid/acetonitrile system as the mobile phase to determine the concentration of glutathione derivative for each plasma.

Data set [3] has as its system TNFα. Nature of the data set: Plasma level of TNFα in normal healthy rats (ELISA). Type of data set: in vivo, rat. The settings on record: fat emulsion 20 mg/kg-body weight/day, days 3, 5 and 7. An excerpt: , plasma obtained form the EDTA-2K-treated blood on days 3, 5, and 7 of the experiment was used to determine plasma levels of interleukin 1β (hereinafter referred to as IL-1β) and tumor necrosis factor (hereinafter referred to as TNFα). For the determination, the rat IL-1β-ELISA system (manufactured by Amersham Pharmacia Biotek Co., Ltd.), the rat TNFα-ELISA system (manufactured by Amersham Pharmacia Biotek Co., Ltd.), and the BioRad microplate reader (MODEL550, Nippon BioRad laboratories, Co., Ltd.).
In general terms: An ELISA detects its analyte on a solid surface through an enzyme-linked reagent.

In data set [4] the test system is rat models of suppressed hematopoietic function by 5-FU administration. The experiment in a line: Ratio of segmented neutrophils in rat models of suppressed hematopoietic function by 5-FU (Example 27). Type of data set: in vivo. The following applies: 5-FU rats; 30 mg/kg-body weight/day with fat emulsion. The method, then: (1) The animals used are the same as in Example 26. The keeping condition was a temperature of 23±2° C. and a humidity of 55±15%.
(2) The creation of the 5-FU administration model, the administration of test substances, and the blood collection schedule were carried out in a similar manner to Example 26. Hematological tests were carried out using the Toa multi-channel automatic cell counter K-4500 or Toa Sysmex CC-180A automatic cell counter, differential counts of white blood cells were carried out by May-Giemsa stain followed by microscopic examination, reticulocytes were counted by the Brecher method.
(3) Using the same schedule as in Example 26, the negative control group that only received the fat emulsion after 5-FU administration, the group that received the glutathione derivative of Example 4 at 30 mg/kg-body weight/day as a test substance together with the fat emulsion, the group that similarly received the glutathione derivative of Example 1 at 10 or 30 mg/kg-body weight/day, and the group that received the glutathione derivative of Example 7 at 30 or 60 mg/kg-body weight/day were studied.

In data set [5] the test system is normal healthy rats. Nature of the data set: Neutrophil counts and bone marrow cells in normal healthy rats (Example 28). The data set is classed as in vivo, rat. As to the method: The effects of increasing neutrophil counts of the compound of Example 4 in normal healthy rats were studied.
(1) Male SD rats, 6-week old, purchased from Nippon SLC were used. The animal feed (MF, manufactured by Oriental Yeast Co., Ltd.) and drinking water (well water treated with 0.4±0.2 ppm hypochlorous acid) were given ad libitum during the period of the experiment. The animals were each housed in a hanging-type rat cage (manufactured by Nippon Cage K.K.) and kept at a temperature of 24±2° C. and a humidity of 55±5%.
(2) The glutathione derivative of Example 4 combined with the fat emulsion at 10, 20, or 30 mg/kg-body weight/day, and the fat emulsion alone as the negative control were each repeatedly administered into the tail vein for 6 days from day 1 to 6 of the experiment. Dosage was 10 ml/kg-body weight/day. From day 1 to 10 of the experiment, blood was drawn everyday from the jugular vein and the EDTA-2K-treated blood was obtained. Then the blood was used to determine the neutrophil counts using a general chemistry test instrument (Technicon H-1E, manufactured by Bayer-Sankyo K.K.).
Part of the negative control group on days 1, 7, and 10, and part of the Example 4—the fat emulsion 30 mg/kg-body weight/day administration group on days 3, 5, 7, and 10 of the experiment were bled to death from the abdominal aorta under anesthesia by the intraperitoneal administration of pentobarbital sodium. Then, the femoral bone marrow was harvested, smears were prepared therefrom using the wedge method, stained by the May-Giemsa stain, and examined under a microscope to determine the fractionation of nucleated bone marrow cells.

In data set [6] the test system is HL-60 cells. The experiment in a line: HL-60 cell differentiation induction, NBT reducing activity, DMSO as solvent (Example 21). The data set is classed as cell-based, human. An excerpt:
In a manner similar to that in Example 20, the in vitro activity of the glutathione derivatives of Examples 4, 5, and 8, and Comparative Example 3 were compared.
(1) The differences from Example 20 were: First, since the glutathione derivatives of Examples and Comparative Examples used dimethyl sulfoxide (DMSO) as the solvent because of the solubility of the compounds, the system contained 0.1-0.3 (v/v)% DMSO instead of ethanol. […] This caused slight differences in the sensitivity in the test results of the glutathione derivative of Example 4. Furthermore, in Example 21, the differentiation induction on HL-60 cells into granulocytic cells in the coexistence of 9-cis-RA was only evaluated.

As for `CCOC(=O)[C@@H](N)CCC(=O)N[C@@H](CSCc1ccccc1)C(=O)N[C@@H](C(=O)OCC)c1ccccc1.Cl` [Comparative Example 1, Glu(Cys(Bzl)-D-Phg-O(Et))-O(Et)hydrochloride, reference compound], in data set [1], the “Local reaction at the site of administration” value was “can cause inflammation at the site of administration”. The compound further showed a Plasma concentration in data set [2] of at most 1000 ng/mL.
Regarding `CCCCCCCCCCCCCCCCOC(=O)[C@@H](N)CCC(=O)N[C@@H](CSCc1ccccc1)C(=O)N[C@@H](C(=O)OCC)c1ccccc1.Cl` [Example 4, Glu(Cys(Bzl)-D-Phg-OEt)-O(Hexadecyl)hydrochloride], the “Plasma level of TNFα relative to the negative control group” value in data set [3] was “No increases”. Further, the “Recovery of segmented neutrophil counts relative to the negative control” value in data set [4] is “tendency of promoting the recovery of segmented neutrophil counts”. Also, the “Neutrophil counts in the peripheral blood relative to the negative control group” value in data set [5] (fat emulsion 30 mg/kg-body weight/day iv, days 1-6, days 2 and 5-8, significance 5%-1%) is “statistically significant increase in the neutrophil counts”. The “Neutrophilic myelocytic cells having the dividing ability in bone marrow” value in data set [5] (fat emulsion 30 mg/kg-body weight/day, days 3 and 5) is “increased”. For the same compound, the “Neutrophilic myelocytic cells having no dividing ability in bone marrow” value in data set [5] (fat emulsion 30 mg/kg-body weight/day, maximum on day 7) was “increases were observed on day 5, 7, and 10”. The “Differentiation induction activity compared with Comparative Example 3” value in data set [6] (HL-60, coexistence of 9-cis-RA) was “activity higher than that of Comparative Example 3”. The “Ratio of NBT reduction activity-positive cells” value in data set [6] (compound 3 × 10^−6 M in DMSO, Solvent control (EtOH - 0.1%)) is recorded as 0.6%; in data set [6] (compound 3 × 10^−6 M in DMSO, with 9-cis-RA (5 × 10^−9 M)), 29.9%; in data set [6] (compound 3 × 10^−7 M in DMSO, Solvent control (EtOH - 0.1%)) it was 0.9%; in data set [6] (compound 3 × 10^−7 M in DMSO, with 9-cis-RA (5 × 10^−9 M)), 11.0%; in data set [6] (compound 3 × 10^−8 M in DMSO, Solvent control (EtOH - 0.1%)) it was 0.7%; in data set [6] (compound 3 × 10^−8 M in DMSO, with 9-cis-RA (5 × 10^−9 M)), 3.1%. Further, the “Ratio of NBT reduction activity-positive cells” value in data set [6] (compound 10^−6 M in DMSO, Solvent control (EtOH - 0.1%)) is 0.3%; in data set [6] (compound 10^−6 M in DMSO, with 9-cis-RA (5 × 10^−9 M)), 21.2%; in data set [6] (compound 10^−7 M in DMSO, Solvent control (EtOH - 0.1%)), 0.7%; in data set [6] (compound 10^−7 M in DMSO, with 9-cis-RA (5 × 10^−9 M)), 5.6%; in data set [6] (compound 10^−8 M in DMSO, Solvent control (EtOH - 0.1%)) it was 0.6%; in data set [6] (compound 10^−8 M in DMSO, with 9-cis-RA (5 × 10^−9 M)), 2.5%.
